{"source": "patent US11739101B2", "about": "“Bifunctional degraders of hematopoietic progenitor kinase and therapeutic uses thereof” (Nurix Therapeutics, Inc., priority 2020, dated 2023)", "data": [{"target": "T1, HPK1 (Homo sapiens, UniProt Q92918)", "T1 construct": "A HiBiT tag was introduced by CRISPR on the N terminus of HPK1 in Jurkat cells; host or cells: Jurkat (ATCC TIB-152), monoclonal CRISPR HiBiT knock-in line", "T1 sequence (Q92918 whole entry)": "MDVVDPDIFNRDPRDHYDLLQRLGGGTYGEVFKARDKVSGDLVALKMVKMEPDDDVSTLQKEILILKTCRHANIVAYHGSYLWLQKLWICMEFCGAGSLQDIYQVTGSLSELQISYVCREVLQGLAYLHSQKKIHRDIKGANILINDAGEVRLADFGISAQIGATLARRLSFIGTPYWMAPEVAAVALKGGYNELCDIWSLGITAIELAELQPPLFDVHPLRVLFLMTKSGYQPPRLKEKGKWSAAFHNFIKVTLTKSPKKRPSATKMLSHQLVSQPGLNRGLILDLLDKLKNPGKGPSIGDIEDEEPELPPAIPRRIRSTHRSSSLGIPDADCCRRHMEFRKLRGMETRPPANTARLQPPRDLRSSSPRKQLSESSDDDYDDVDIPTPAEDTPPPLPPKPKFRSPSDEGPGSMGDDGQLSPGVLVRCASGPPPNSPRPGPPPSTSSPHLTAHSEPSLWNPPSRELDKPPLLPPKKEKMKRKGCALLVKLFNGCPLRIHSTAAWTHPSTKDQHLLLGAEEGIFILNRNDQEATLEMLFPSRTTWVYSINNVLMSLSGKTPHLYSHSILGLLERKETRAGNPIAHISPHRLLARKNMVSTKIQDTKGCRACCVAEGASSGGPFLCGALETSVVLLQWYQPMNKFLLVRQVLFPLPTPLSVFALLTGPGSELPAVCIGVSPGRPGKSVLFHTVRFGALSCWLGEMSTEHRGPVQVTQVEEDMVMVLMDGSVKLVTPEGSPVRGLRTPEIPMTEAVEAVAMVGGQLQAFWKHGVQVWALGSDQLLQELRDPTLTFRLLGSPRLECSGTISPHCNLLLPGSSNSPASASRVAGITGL", "assay": "HPK1 Cellular HiBiT Degradation Assay", "type": "cell-based", "conditions": "HiBiT-tagged HPK1 Jurkat cells, 24 hours, 10 uM to 0.1 nM; Dmax = 100 minus lowest % HPK1 remaining vs DMSO vehicle", "procedure,_shortened": "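Jurkat cells with CRISPR N-terminal HiBiT-tagged HPK1 were exposed to an 11-point 3.16-fold dilution series, 10 uM to 0.1 nM final, for 24 hours at 37° C./5% CO2. HPK1 was read by HiBiT lytic luminescence against DMSO as 100% and parental cells as background. Dmax is 100 minus the lowest % remaining from a four-parameter fit, with a parallel CellTiter-Glo viability check.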", "units": {"Dmax": "%"}, "values": [{"smiles": "Cc1cc(F)c(Nc2nc(-c3ccc4c(c3)N([C@H]3C[C@@H](N5CCCCC5)C3)C(=O)C43CCN(C(=O)c4ccc(OC5CCN(c6cccc7c6C(=O)N(C6CCC(=O)NC6=O)C7=O)CC5)cc4)CC3)cc3ncn(C(C)C)c23)cc1C(=O)NC(C)C", "note": "(some centres unmarked) [Example 63, 5-{[6-(1′-{4-[(1-{2-[2,6-dioxopiperidin-3-yl]-1,3-dioxo-2,3-dihydro-1H-isoindol-4-yl}piperidin-4-yl)oxy]benzoyl}-2-oxo-1-[(1s,3s)-3-(piperidin-1-yl)cyclobutyl]-1,2-dihydrospiro[indole-3,4′-piperidin]-6-yl)-3-(propan-2-yl)-3H-imidazo[4,5-c]pyridin-4-yl]amino}-4-fluoro-2-methyl-N-(propan-2-yl)benzamide]", "Dmax": "> 65"}, {"smiles": "Cc1cc(F)c(Nc2nc(-c3ccc4c(c3)N([C@H]3C[C@@H](N5CCCCC5)C3)C(=O)C43CCN(C(=O)[C@H]4CC[C@@H](C(=O)N5CCN(c6ccc7c(c6)C(=O)N(C6CCC(=O)NC6=O)C7=O)CC5)CC4)CC3)cc3ncn(C(C)C)c23)cc1C(=O)NC(C)C", "note": "(stereo partly drawn) [Example 79, 5-((6-(1′-((1s,4S)-4-(4-(2-(2,6-dioxopiperidin-3-yl)-1,3-dioxoisoindolin-5-yl)piperazine-1-carbonyl)cyclohexane-1-carbonyl)-2-oxo-1-((1s,3s)-3-(piperidin-1-yl)cyclobutyl)spiro[indoline-3,4′-piperidin]-6-yl)-3-isopropyl-3H-imidazo[4,5-c]pyridin-4-yl)amino)-4-fluoro-N-isopropyl-2-methylbenzamide]", "Dmax": "45 to 65"}, {"smiles": "Cc1cc(F)c(Nc2nc(-c3ccc4c(c3)N([C@H]3C[C@@H](N5CCCCC5)C3)C(=O)C43CCN(C(=O)C4CCN(C(=O)[C@H]5CC[C@H](Nc6cccc7c6C(=O)N(C6CCC(=O)NC6=O)C7=O)CC5)CC4)CC3)cc3ncn(C(C)C)c23)cc1C(=O)NC(C)C", "note": "(stereo partly drawn) [Example 60, 4-fluoro-2-methyl-5-{[6-(2-oxo-1′-{1-[(1R,4R)-4-({2-[2,6-dioxopiperidin-3-yl]-1,3-dioxo-2,3-dihydro-1H-isoindol-4-yl}amino)cyclohexanecarbonyl]piperidine-4-carbonyl}-1-[(1s,3s)-3-(piperidin-1-yl)cyclobutyl]-1,2-dihydrospiro[indole-3,4′-piperidin]-6-yl)-3-(propan-2-yl)-3H-imidazo[4,5-c]pyridin-4-yl]amino}-N-(propan-2-yl)benzamide]", "Dmax": "> 65"}, {"smiles": "Cc1cc(F)c(Nc2nc(-c3ccc4c(c3)N([C@H]3C[C@@H](N5CCCCC5)C3)C(=O)C43CCN(C(=O)C4CCN(CC5CCN(c6cccc7c6C(=O)N(C6CCC(=O)NC6=O)C7=O)CC5)C4)CC3)cc3ncn(C(C)C)c23)cc1C(=O)NC(C)C", "note": "(some centres unmarked) [Example 38, 5-[(6-{1′-[1-[(1-{2-[2,6-dioxopiperidin-3-yl]-1,3-dioxo-2,3-dihydro-1H-isoindol-4-yl}piperidin-4-yl)methyl]pyrrolidine-3-carbonyl]-2-oxo-1-[(1s,3s)-3-(piperidin-1-yl)cyclobutyl]-1,2-dihydrospiro[indole-3,4′-piperidin]-6-yl}-3-(propan-2-yl)-3H-imidazo[4,5-c]pyridin-4-yl)amino]-4-fluoro-2-methyl-N-(propan-2-yl)benzamide]", "Dmax": "> 65"}, {"smiles": "Cc1cc(F)c(Nc2nc(-c3ccc4c(c3)N([C@H]3C[C@@H](N5CCCCC5)C3)C(=O)C43CCN(C(=O)C4CN(C(=O)C5CCN(c6ccc7c(c6)C(=O)N(C6CCC(=O)NC6=O)C7=O)CC5)C4)CC3)cc3ncn(C(C)C)c23)cc1C(=O)NC(C)C", "note": "(some centres unmarked) [Example 39, 5-[(6-{1′-[1-(1-{2-[2,6-dioxopiperidin-3-yl]-1,3-dioxo-2,3-dihydro-1H-isoindol-5-yl}piperidine-4-carbonyl)azetidine-3-carbonyl]-2-oxo-1-[(1s,3s)-3-(piperidin-1-yl)cyclobutyl]-1,2-dihydrospiro[indole-3,4′-piperidin]-6-yl}-3-(propan-2-yl)-3H-imidazo[4,5-c]pyridin-4-yl)amino]-4-fluoro-2-methyl-N-(propan-2-yl)benzamide]", "Dmax": "< 45"}]}]}
